Reference: patent US5006515A, “Pharmaceuticals, phosphorus-containing 2-isoxazolines and isoxazoles contained therein” (Hoechst Aktiengesellschaft, priority 1987, dated 1991)
Each block holds one compound with its values, some of them ahead of it.

Key:
peritoneal macrophages [1] = experiment: Activation of peritoneal macrophages: chemiluminescence (oxidative metabolism); settings: single i.p. dose of 40 mg/kg; maximum activation by Example 34 = 100%; 40 mg/kg
peritoneal macrophages [2] = experiment: Stimulation of the release of lysosomal enzymes from peritoneal macrophages (exocytosis); settings: single i.p. dose of 40 mg/kg; maximum activation by Example 34 = 100%; 40 mg/kg
leucine aminopeptidase = experiment: Inhibition of leucine aminopeptidase; format: biochemical; settings: substrate L-leucine 4-nitroanilide
Procedure: (§1) The activity of the enzyme aminopeptidase B was determined photometrically using the substrate L-lysine 2-naphthylamide at room temperature. […] In the same way, the inhibition of leucine aminopeptidase was investigated using L-leucine 4-nitroanilide as enzyme substrate. The IC50 values are compiled in Table 6.

[3] = test system: DTH reaction to sheep erythrocytes; experiment: Delayed-type hypersensitivity (DTH) reaction to sheep erythrocytes; format: in vivo, female NMRI mice; settings: single i.p. dose of 40 mg/kg, maximal stimulation by Example 34 = 100%
Procedure: Groups each comprising 5 female NMRI mice with a body weight of 18 to 20 g were formed, and each animal was given 10^6 or 10^9 sheep red blood cells intravenously. Sheep erythrocytes are regarded in immunology as a standard antigen with which it is possible to check cellular and humoral immunoreactivity, especially the functioning of the T-cell-dependent component of the immune system, the so-called T-helper cells. The test substances were administered, in intraperitoneal doses of 5 to 100 mg/kg in physiological saline, at the same time as the antigen. After 5 days, each animal was given an injection of 2×10^8 sheep erythrocytes into the footpad. 24 hours later, the swelling of the foot was measured. The foot swelling is induced by a skin reaction of the delayed type (DTH reaction) and, as is known to those skilled in the art, is a measure of the cellular immune response (J. Immunol. 101 (1968), 830-845). The test results obtained with the product of Example 34, by way of example, are compiled in Table 7 and illustrate that the compounds of the formula I--administered prophylactically--are able to increase the cellular immune response after immunization with the antigen by stimulation of the T-cell system, with the stimulant action reaching its optimum in this experiment at a dose of 25 mg/kg.

active Arthus reaction = experiment: Active Arthus reaction in the rat; format: in vivo, Sprague-Dawley rats; settings: 4 h after ovalbumin challenge; for Active Arthus reaction % change / change in vivo at 50 mg/kg: oral dose 50 mg/kg
Procedure: The experimental animals used were female and male Sprague-Dawley rats with a body weight between 80 and 100 g which received subcutaneous injections into the tail-head of 0.5 ml of an emulsion of pertussis vaccine and ovalbumin in liquid paraffin. After two weeks, the rats were divided into groups each of 8 animals. 24 hours and 1 hour before induction of the Arthus reaction by injection of 0.1 ml of a 0.4% strength ovalbumin solution into the right hind paw, the particular test substance or the pure vehicle (positive control) was administered orally, sodium chloride solution was injected into the left paw. One group of unsensitized animals (negative control group) was likewise treated with ovalbumin in order to be able to rule out nonspecific reactions to the protein. The parameter used for measuring the action of the product was the percentage change in the increase in paw volume compared with that in the control group which was sensitized but untreated (positive control) 4 hours after ovalbumin challenge, when the swelling had reached its maximum.

aminopeptidase B = aminopeptidase B (Homo sapiens, UniProt Q9H4A4); experiment: Inhibition of aminopeptidase B; format: biochemical
Procedure: as §1

Acute toxicity = experiment: Acute toxicity; design: species or system mice; settings: mouse, in vivo, single dose, mortality within 7 days
Procedure: The LD50 values were determined by the standard method via the mortality occurring within 7 days in NMRI (Naval Medical Research Institute) mice (6 animals per dose) after a single intraperitoneal (i.p.) or intravenous (i.v.) dose.

cGvH reaction = experiment: Chronic graft-versus-host (cGvH) reaction in the mouse; format: in vivo, female mice of (DBA/2×C57Bl/6)F1 generation; settings: 6 weeks
Source text: Graft-versus-host disease, which derives from an immune reaction originating from the transplant and directed against the host tissue, is characterized, in the acute form which almost always has a fatal outcome, by enlargement of the spleen, swelling of the liver, hypertrophy of the lymph nodes, hemolytic anemia, lowered immunoglobulin and complement levels and diminished immunoreactivity. The chronic form of the disease, which has a somewhat milder course, leads to lymphadenopathy, immune complex glomerulonephritis and excessive formation of non-organ-specific autoantibodies. A syndrome with similar features is systemic lupus erythematosus (SLE) which is likewise one of the autoimmune diseases.
The investigation of the compounds used according to the invention for the progress of the cGvH reaction induced in female mice of (DBA/2×C57Bl/6)F1 generation by two injections of spleen and thymus cells mixed together are carried out in the experimental system described by S. Popovic and R. R. Bartlett (Agents and Actions 21 (1987), 284-286), with 5×10^7 DBA/2 cells, likewise obtained from female donor animals, being administered intravenously in 0.2 ml of culture medium each time at a time interval of 7 days. For a reliable assessment of the outbreak and course of the disease, a group of healthy animals was included as negative control in all experiments. The 6-week oral treatment of the animals with the disease started on day 21 after the first donor cell injection, with the test substances or the pure vehicle (positive control) being administered once a day. The vehicle used was an aqueous CMC (carboxymethylcellulose sodium salt) solution containing 100 mg of CMC per 1. The volume administered was 10 ml per kg body weight. The individual experimental groups each comprised 10 animals.
The action of the products was assessed on the basis of the inhibition of proteinuria and the cGvH index. As a consequence of the destruction of nephrons by deposition of immune complexes on the basement membranes of the glomeruli, the animals with the disease developed pronounced proteinuria, which correlates with the extent of glomerulonephritis and can easily be quantified via the increase in the amount of protein excreted with the urine. The second parameter measured, the cGvH index, relates to the great enlargement of the spleen (splenomegaly) caused by the cGvH reaction. It is defined as the quotient of the product of the spleen and body weights of the animals with the disease and of the product of the corresponding weights of healthy untreated animals on the negative control group, and is a reliable measure of the intensity of the disease (the greater this index, the more severe the disease).

aminopeptidase B, sequence (Q9H4A4 whole entry, species assumed): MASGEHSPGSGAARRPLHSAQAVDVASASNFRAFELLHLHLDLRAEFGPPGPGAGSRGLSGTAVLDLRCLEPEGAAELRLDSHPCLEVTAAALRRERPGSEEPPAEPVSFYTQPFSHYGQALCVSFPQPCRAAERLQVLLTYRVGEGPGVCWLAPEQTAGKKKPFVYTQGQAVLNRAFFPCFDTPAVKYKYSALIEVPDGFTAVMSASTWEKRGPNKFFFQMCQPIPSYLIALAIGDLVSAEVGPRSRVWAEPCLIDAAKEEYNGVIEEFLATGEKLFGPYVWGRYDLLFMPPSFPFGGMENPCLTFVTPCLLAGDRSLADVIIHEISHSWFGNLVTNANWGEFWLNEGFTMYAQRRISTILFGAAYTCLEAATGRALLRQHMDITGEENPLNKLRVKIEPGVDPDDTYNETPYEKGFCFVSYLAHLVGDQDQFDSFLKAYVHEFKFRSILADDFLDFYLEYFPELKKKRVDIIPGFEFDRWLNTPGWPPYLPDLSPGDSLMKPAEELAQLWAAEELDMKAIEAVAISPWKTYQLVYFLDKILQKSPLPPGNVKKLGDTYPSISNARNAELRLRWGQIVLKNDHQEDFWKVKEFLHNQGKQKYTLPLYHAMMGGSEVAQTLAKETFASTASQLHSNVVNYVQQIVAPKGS

SMILES: COP(=O)(OC)C1CC(c2ccccc2)=NO1 (single isomer, unassigned) [Example 60a, Dimethyl (+)- and (-)-3-phenyl-2-isoxazolin-5-ylphosphonate]
Relative stimulation of macrophage activity: Chemiluminescence (peritoneal macrophages [1]): 51% | Relative stimulation of macrophage activity: Exocytosis (peritoneal macrophages [2]): 88%

SMILES: COP(=O)(OC)C1CC(c2ccccc2)=NO1 (single isomer, unassigned) [Example 60b, Dimethyl (+)- and (-)-3-phenyl-2-isoxazolin-5-ylphosphonate]
Relative stimulation of macrophage activity: Chemiluminescence (peritoneal macrophages [1]): 24% | Relative stimulation of macrophage activity: Exocytosis (peritoneal macrophages [2]): 63%

SMILES: O=P(O)(O)C1CC(c2ccccc2)=NO1 (single isomer, unassigned; (+)) [Example 61, (+)-3-Phenyl-2-isoxazolin-5-ylphosphonic acid]
Leucine aminopeptidase IC50 (leucine aminopeptidase): 26 μug/ml | Relative stimulation of the DTH reaction ([3]; 40 mg/kg): 108% | Active Arthus reaction % change (active Arthus reaction): +52%

SMILES: O=P(O)(O)C1CC(c2ccccc2)=NO1 (single isomer, unassigned; (-)) [Example 62, (-)-3-Phenyl-2-isoxazolin-5-ylphosphonic acid]
Leucine aminopeptidase IC50 (leucine aminopeptidase): 130 μug/ml | Relative stimulation of the DTH reaction ([3]; 40 mg/kg): 83% | Active Arthus reaction % change (active Arthus reaction): +16%

SMILES: COP(C)(=O)C1CC(c2ccccc2)=NO1 (centres unmarked) [Example 13, Methyl 3-phenyl-2-isoxazolin-5-yl(P-methyl)phosphinate]
IC50 (aminopeptidase B): 418 µM | LD50 at 168 h (Acute toxicity; iv): > 200 mg/kg | change in vivo at 50 mg/kg (active Arthus reaction; Rattus norvegicus): -13%

SMILES: O=P(O)(O)C1CC(c2ccccc2)=NO1 (centres unmarked) [Example 35]
Leucine aminopeptidase IC50 (leucine aminopeptidase): 57 μug/ml | Relative stimulation of the DTH reaction ([3]; 40 mg/kg): 98% | LD50 at 168 h (Acute toxicity; iv): > 200 mg/kg | change in vivo at 35 mg/kg (active Arthus reaction; Rattus norvegicus, po, 4 h, oral dose 35 mg/kg, read-out: Active Arthus reaction % change): -16%

SMILES: O=P(O)(O)C1CC(c2ccccc2)=NO1 (centres unmarked) [Example 36]
Leucine aminopeptidase IC50 (leucine aminopeptidase): 56 μug/ml | Relative stimulation of the DTH reaction ([3]; 40 mg/kg): 102%

SMILES: O=P(O)(O)C1CC(c2ccccc2)=NO1 (centres unmarked) [Example 37]
Leucine aminopeptidase IC50 (leucine aminopeptidase): 52 μug/ml | Relative stimulation of the DTH reaction ([3]; 40 mg/kg): 77%

Leucine aminopeptidase IC50 (leucine aminopeptidase): 65 μug/ml
SMILES: O=C(C1=NOC(P(=O)(O)O)C1)c1ccccc1 (centres unmarked) [Example 53]
Relative stimulation of the DTH reaction [3]: 68%

SMILES: COc1ccc(-c2cc(P(=O)(O)O)on2)cc1 [Example 54]
% inhibition Proteinuria (cGvH reaction; oral dose 15 mg/kg/day): 27% | % inhibition cGvH index (cGvH reaction; oral dose 15 mg/kg/day): 16% | % inhibition Proteinuria (cGvH reaction; oral dose 50 mg/kg/day): 64% | % inhibition cGvH index (cGvH reaction; oral dose 50 mg/kg/day): 18% | LD50 at 168 h (Acute toxicity; iv): > 200 mg/kg | change in vivo at 40 mg/kg (active Arthus reaction; Rattus norvegicus, po, 4 h, oral dose 40 mg/kg): -57%

SMILES: CP(=O)(O)C1CC(c2ccccc2)=NO1 (centres unmarked) [Example 63, 3-Phenyl-2-isoxazolin-5-yl(P-methyl)phosphinic acid]
% inhibition Proteinuria (cGvH reaction; oral dose 15 mg/kg/day): 76% | % inhibition cGvH index (cGvH reaction; oral dose 15 mg/kg/day): 54% | % inhibition Proteinuria (cGvH reaction; oral dose 30 mg/kg/day): 61% | % inhibition cGvH index (cGvH reaction; oral dose 30 mg/kg/day): 48% | LD50 at 168 h (Acute toxicity; ip): 300 to 600 mg/kg | change in vivo at 50 mg/kg (active Arthus reaction; Rattus norvegicus, po, 4 h): -48%
